Toxic doses and inconclusive results are not listed. Rule as the data show it: active = T/C of 150% or more; inactive = T/C below 125%.
Test system: L1210 leukemia ip in BDF1 mice, survival T/C
Assay: NCI In Vivo Anticancer Drug Screen. Data for tumor model L1210 Leukemia (intraperitoneal) in B6D2F1 (BDF1) mice
Details: endpoint: mean survival time, higher = longer survival
Outline: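 Antitumor effect is assessed in tumor-bearing animals. Survival in the compound arm is compared with a vehicle-dosed control arm and expressed as their quotient.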

[1] = dose: 100.0 mg/kg/injection, schedule: Q01DX001 (ip), vehicle: Klucel (hydroxypropylcellulose) (HPC)
[2] = dose: 200.0 mg/kg/injection, schedule: Q01DX001 (ip), vehicle: Klucel (hydroxypropylcellulose) (HPC)
[3] = dose: 400.0 mg/kg/injection, schedule: Q01DX001 (ip), vehicle: Klucel (hydroxypropylcellulose) (HPC)
[4] = dose: 100.0 mg/kg/injection, schedule: Q01DX009 (ip), vehicle: Klucel (hydroxypropylcellulose) (HPC)
[5] = dose: 200.0 mg/kg/injection, schedule: Q01DX009 (ip), vehicle: Klucel (hydroxypropylcellulose) (HPC)
[6] = dose: 100.0 mg/kg/injection, schedule: Q04DX003 (ip), vehicle: saline
[7] = dose: 200.0 mg/kg/injection, schedule: Q04DX003 (ip), vehicle: saline
[8] = dose: 400.0 mg/kg/injection, schedule: Q04DX003 (ip), vehicle: saline
[9] = dose: 100.0 mg/kg/injection, schedule: Q01DX009 (ip), vehicle: saline with Tween-80
[10] = dose: 200.0 mg/kg/injection, schedule: Q01DX009 (ip), vehicle: saline with Tween-80
[11] = dose: 50.0 mg/kg/injection, schedule: Q01DX009 (ip), vehicle: Klucel (hydroxypropylcellulose) (HPC)
[12] = dose: 100.0 mg/kg/injection, schedule: Q04DX003 (ip), vehicle: saline with Tween-80
[13] = dose: 200.0 mg/kg/injection, schedule: Q04DX003 (ip), vehicle: saline with Tween-80
[14] = dose: 400.0 mg/kg/injection, schedule: Q04DX003 (ip), vehicle: saline with Tween-80
[15] = dose: 400.0 mg/kg/injection, schedule: Q01DX009 (ip), vehicle: saline with Tween-80
[16] = dose: 100.0 mg/kg/injection, schedule: Q04DX003 (ip), vehicle: Klucel (hydroxypropylcellulose) (HPC)
[17] = dose: 200.0 mg/kg/injection, schedule: Q04DX003 (ip), vehicle: Klucel (hydroxypropylcellulose) (HPC)

Measured: T/C

CC(C)c1ccc(/C=C2\C=Nc3ccccc32)cc1
inactive: dose: 100.0 mg/kg/injection, schedule: Q04DX002 (ip), vehicle: gum acacia 95 % of control | dose: 200.0 mg/kg/injection, schedule: Q04DX002 (ip), vehicle: gum acacia 92 % of control | dose: 400.0 mg/kg/injection, schedule: Q04DX002 (ip), vehicle: gum acacia 95 % of control

O=C=Nc1ccc(C(=O)c2ccccc2)cc1
inactive: dose: 20.0 mg/kg/injection, schedule: Q01DX009 (ip), vehicle: saline with Tween-80 93 % of control | dose: 40.0 mg/kg/injection, schedule: Q01DX009 (ip), vehicle: saline with Tween-80 93 % of control | dose: 80.0 mg/kg/injection, schedule: Q01DX009 (ip), vehicle: saline with Tween-80 90 % of control | dose: 160.0 mg/kg/injection, schedule: Q01DX009 (ip), vehicle: saline with Tween-80 90 % of control | dose: 320.0 mg/kg/injection, schedule: Q01DX009 (ip), vehicle: saline with Tween-80 93 % of control

CCOC(=O)c1cnc(C(Cl)(Cl)Cl)[nH]c1=O
inactive: [1] 94 % of control | [2] 99 % of control | [3] 92 % of control

C/C=C/C(=O)Nc1ccc(Cl)c(Cl)c1
inactive: dose: 100.0 mg/kg/injection, schedule: Q04DX002 (ip), vehicle: Klucel (hydroxypropylcellulose) (HPC) 94 % of control | dose: 200.0 mg/kg/injection, schedule: Q04DX002 (ip), vehicle: Klucel (hydroxypropylcellulose) (HPC) 90 % of control | dose: 400.0 mg/kg/injection, schedule: Q04DX002 (ip), vehicle: Klucel (hydroxypropylcellulose) (HPC) 90 % of control

O=C(COc1ccccc1)Nc1ccc(Cl)cc1
inactive: [4] 89 % of control | [5] 95 % of control | dose: 400.0 mg/kg/injection, schedule: Q01DX009 (ip), vehicle: Klucel (hydroxypropylcellulose) (HPC) 90 % of control

CN(C)c1ncnc2c1ncn2C1OC(CO)C(N(C)C)C1O (stereo unspecified)
inactive: dose: 100.0 mg/kg/injection, schedule: Q01DX005 (ip), vehicle: saline 103 % of control | dose: 200.0 mg/kg/injection, schedule: Q01DX005 (ip), vehicle: saline 95 % of control

CCCCNC(=NC)c1ccc(NC(=O)Nc2ccc(NC(=O)Nc3ccc(C(=NC)NCCCC)cc3)cc2)cc1
inactive: dose: 2.0 mg/kg/injection, schedule: Q01DX Z (ip), vehicle: methylcellulose (MC) 103 % of control | dose: 3.9 mg/kg/injection, schedule: Q01DX Z (ip), vehicle: methylcellulose (MC) 96 % of control

CCC(C)(C=O)C(C)=O (stereo unspecified)
inactive: [6] 98 % of control | [7] 96 % of control | [8] 88 % of control

CC(C)N=C(N)C(N)=NC(C)C
inactive: dose: 100.0 mg/kg/injection, schedule: Q01DX009 (ip), vehicle: saline 97 % of control | [6] 98 % of control | dose: 200.0 mg/kg/injection, schedule: Q01DX009 (ip), vehicle: saline 92 % of control | [7] 104 % of control | dose: 400.0 mg/kg/injection, schedule: Q01DX009 (ip), vehicle: saline 96 % of control | [8] 96 % of control

O=C(CNC(=O)Nc1cccc(Cl)c1Cl)N/N=C/c1cccc([N+](=O)[O-])c1
inactive: dose: 50.0 mg/kg/injection, schedule: Q01DX009 (ip), vehicle: saline with Tween-80 90 % of control | [9] 96 % of control | [10] 90 % of control

CCCCCCCCN(C=O)CCCCCCCC
inactive: dose: 100.0 mg/kg/injection, schedule: Q04DX002 (ip), vehicle: saline with Tween-80 98 % of control

COCC(O)C(OC)C(OC)C(N)C=O (stereo unspecified)
inactive: dose: 100.0 mg/kg/injection, schedule: Q01DX001 (ip), vehicle: saline 101 % of control | dose: 200.0 mg/kg/injection, schedule: Q01DX001 (ip), vehicle: saline 101 % of control | dose: 400.0 mg/kg/injection, schedule: Q01DX001 (ip), vehicle: saline 107 % of control

COC(=O)/C=C1\Nc2ccc([N+](=O)[O-])cc2NC1=O
inactive: [11] 87 % of control | [4] 94 % of control | [5] 100 % of control

O=C1OC(=O)c2c1ccc1ccc(Cl)cc21
inactive: [12] 94 % of control | [13] 94 % of control | [14] 102 % of control

C/C(=N/N(C)C)c1ccc(C#N)cc1
inactive: [1] 112 % of control | [2] 113 % of control | [3] 105 % of control

CC(=O)Nc1ccc2c(c1)C(C)c1ccccc1-2 (stereo unspecified)
inactive: dose: 100.0 mg/kg/injection, schedule: Q01DX001 (ip), vehicle: carboxymethylcellulose (CMC) 89 % of control | dose: 200.0 mg/kg/injection, schedule: Q01DX001 (ip), vehicle: carboxymethylcellulose (CMC) 95 % of control | dose: 400.0 mg/kg/injection, schedule: Q01DX001 (ip), vehicle: carboxymethylcellulose (CMC) 93 % of control

CCOc1ccc(OCC)c(NC(=O)Nc2cc([N+](=O)[O-])ccc2OC)c1
inactive: [11] 114 % of control | [4] 93 % of control | [5] 96 % of control

Cc1ccc(NS(=O)(=O)c2ccc([N+](=O)[O-])cc2)c(C)c1
inactive: [9] 98 % of control | [12] 88 % of control | [10] 101 % of control | [13] 89 % of control | [15] 98 % of control | [14] 86 % of control

COc1cc(CCN(C)C)cc(OC)c1OC
inactive: dose: 75.0 mg/kg/injection, schedule: Q01DX001 (ip), vehicle: saline 95 % of control | dose: 150.0 mg/kg/injection, schedule: Q01DX001 (ip), vehicle: saline 101 % of control | dose: 300.0 mg/kg/injection, schedule: Q01DX001 (ip), vehicle: saline 102 % of control

COc1cc2c(cc1OC(C)=O)C=CCCC2=O
inactive: dose: 100.0 mg/kg/injection, schedule: Q01DX009 (ip), vehicle: other 97 % of control | dose: 100.0 mg/kg/injection, schedule: Q04DX003 (ip), vehicle: other 105 % of control | dose: 200.0 mg/kg/injection, schedule: Q01DX009 (ip), vehicle: other 90 % of control | dose: 200.0 mg/kg/injection, schedule: Q04DX003 (ip), vehicle: other 105 % of control | dose: 400.0 mg/kg/injection, schedule: Q01DX009 (ip), vehicle: other 97 % of control | dose: 400.0 mg/kg/injection, schedule: Q04DX003 (ip), vehicle: other 104 % of control

CCCCCCOc1ccc(/C=N\N=C\c2ccc(OCCCCCC)cc2)cc1
inactive: [9] 92 % of control | [10] 89 % of control | [15] 91 % of control

CC(C)(C)C1COP(=S)(C(C)(C)C)OC1 (stereo unspecified)
inactive: [16] 102 % of control | [17] 93 % of control

O=C(OCC(OC(=O)c1ccccc1)C1OCOC2COCOC21)c1ccccc1 (stereo unspecified)
inactive: [1] 101 % of control | [2] 101 % of control | [3] 97 % of control

Clc1ccc(OCc2sc3ccc(Br)cc3c2CN2CCc3ccccc3C2)cc1
inactive: dose: 75.0 mg/kg/injection, schedule: Q01DX009 (ip), vehicle: Klucel (hydroxypropylcellulose) (HPC) 101 % of control | [16] 94 % of control | dose: 150.0 mg/kg/injection, schedule: Q01DX009 (ip), vehicle: Klucel (hydroxypropylcellulose) (HPC) 94 % of control | [17] 98 % of control | dose: 300.0 mg/kg/injection, schedule: Q01DX009 (ip), vehicle: Klucel (hydroxypropylcellulose) (HPC) 97 % of control | dose: 400.0 mg/kg/injection, schedule: Q04DX003 (ip), vehicle: Klucel (hydroxypropylcellulose) (HPC) 94 % of control

Source: PubChem BioAssay AID248 (DTP/NCI, 2004)
